According to patent US6150393A (priority 1999, dated 2000):
pIC50: −log10 of the molar value.

System: not listed separately
Experiment: Bar catalepsy test in rats (extrapyramidal side effect analysis)
Type: in vivo, rat (male Sprague-Dawley)
Conditions: 0.8 mg/kg
With O=C(CCCN1CCC(O)(c2ccc(Cl)cc2)CC1)c1ccc(F)cc1 [haloperidol, reference compound] the induction of catalepsy was “induces catalepsy in rats” and the “time spent on the bar” value was “significant increase in time spent on the bar”.

Molecular target: T1, endogenous human 5-HT2C receptor (Homo sapiens, UniProt P28335)
T1 sequence (P28335 33-458): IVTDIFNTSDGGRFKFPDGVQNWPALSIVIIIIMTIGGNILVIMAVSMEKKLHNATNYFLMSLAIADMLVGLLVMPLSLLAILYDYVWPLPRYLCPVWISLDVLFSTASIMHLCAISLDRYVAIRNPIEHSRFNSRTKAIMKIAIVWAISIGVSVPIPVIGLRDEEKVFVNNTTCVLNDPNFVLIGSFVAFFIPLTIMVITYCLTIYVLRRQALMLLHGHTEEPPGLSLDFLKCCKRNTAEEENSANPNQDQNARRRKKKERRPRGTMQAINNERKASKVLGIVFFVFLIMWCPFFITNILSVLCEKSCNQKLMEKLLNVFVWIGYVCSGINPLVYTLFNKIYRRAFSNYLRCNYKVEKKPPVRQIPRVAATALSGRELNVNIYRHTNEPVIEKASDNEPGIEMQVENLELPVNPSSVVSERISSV
Experiment: not given
Conditions: 30 μM mianserin, data not shown
For CN1CCN2c3ccccc3Cc3ccccc3C2C1 (stereo not shown) [mianserin], the “inhibition of serotonin-stimulated [35S]GTPγS binding” value was “completely inhibited”.

Same assay, conditions: data not shown
In the case of CN1CCN2c3ccccc3Cc3ccccc3C2C1 (stereo not shown) [mianserin], the “effect on serotonin response of [35S]GTPγS binding” value was “inhibits this response”.

Same assay, conditions: no agonist, data not shown
With CN1CCN2c3ccccc3Cc3ccccc3C2C1 (stereo not shown) [mianserin] the “effect on basal constitutive binding of [35S]GTPγS” value was “partial inverse agonist”.

System: human mutated 5HT2A receptor, AP-3
Experiment: Receptor-mediated inositol phosphate (IP3) accumulation, AP-3
Type: cell-based
Conditions: 10 μM test compound, triplicate; control without test compound
Method: On day one, 1×10^7 293 cells per 150 mm plate were plated out. On day two, two reaction tubes were prepared (the proportions to follow for each tube are per plate): tube A was prepared by mixing 20 μg DNA (e.g., pCMV vector; pCMV vector AP-1 cDNA, etc.) in 1.2 ml serum free DMEM (Irvine Scientific, Irvine, Calif.); tube B was prepared by mixing 120 μl lipofectamine (Gibco BRL) in 1.2 ml serum free DMEM. Tubes A and B were then admixed by inversions (several times), followed by incubation at room temperature for 30-45 min. The admixture is referred to as the "transfection mixture". Plated 293 cells were washed with 1×PBS, followed by addition of 10 ml serum free DMEM. 2.4 ml of the transfection mixture was then added to the cells, followed by incubation for 4 hrs at 37° C./5% CO2. On day 3, cells were trypsinized and counted, followed by plating of 1×10^6 cells/well (poly D-lysine treated 12-well plates). Cells were permitted to adhere to the wells, followed by one wash with 1×PBS. Thereafter, 0.5 μCi ^3 H-inositol in 1 ml inositol-free DMEM was added per well. Protocol B.
On day 4, the cells were washed with 0.5 ml PBS and then 0.45 ml of assay medium was added containing inositol-free/serum free media, 10 μM pargyline, 10 mM lithium chloride, or 0.4 ml of assay medium and 50 ul of 10× ketanserin (ket) to a final concentration of 10 μM. The cells were then incubated for 30 minutes at 37° C. Then the cells were washed with 0.5 ml PBS and 200 ul of fresh/ice cold stop solution (1M KOH; 18 mM Na-borate; 3.8 mM EDTA) was added/well. The solution was kept on ice for 5-10 minutes or until the cells were lysed and then neutralized by 200 μl of fresh/ice cold neutralization sol. (7.5% HCL). The lysate was then transferred into 1.5 ml microcentrifuge tubes and 1 ml of chloroform/methanol (1:2) was added/tube. The solution was vortexed for 15 seconds and the upper phase was applied to a Biorad AG1-X8 anion exchange resin (100-200 mesh). The resin was washed with water and 0.9 ml of the upper phase was loaded onto the column. The column was washed with 10 mls of 5 mM myo-inositol and 10 ml of 5 mM Na-borate/60 mM Na-formate. The inositol trisphosphates were eluted into scintillation vials containing 10 ml of scintillation cocktail with 2 ml of 0.1 M formic acid/1 M ammonium formate. The columns were regenerated by washing with 10 ml of 0.1 M formic acid/3M ammonium formate and rinsed twice with dd H2 O and stored at room temperature in water.
Candidate compound identified in the assays of Examples 9a-9c were then evaluated for inositol phosphate accumulation, following the protocol of Example 5 ([…] expressing human mutated 5HT2A receptor, AP-3), modified as follows: tube A was prepared by mixing 16 μg DNA (e.g., pCMV vector; pCMV vector AP-1 cDNA, etc.) in 1.0 ml serum free DMEM (Irvine Scientific, Irvine, Calif.); tube B was prepared by mixing 60 μl lipofectamine (Gibco BRL) in 1.0 ml serum free DMEM. Tubes A and B were then admixed by inversions (several times), followed by incubation at room temperature for 30 min. The admixture is referred to as the "transfection mixture". Plated 293 cells were washed with 10 ml Serum Free DMEM, followed by addition of 11 ml Serum Free DMEM. 2.0 ml of the transfection mixture was then added to the cells, followed by incubation for 5 hrs at 37° C./5% CO2. On day 3, cells were trypsinized and counted, followed by plating of 1×10^6 cells/well (12-well plates). Cells were permitted to adhere to the wells for 8 hrs, followed by one wash with 1×PBS. Thereafter, 0.5 μCi ^3 H-inositol in 1 ml inositol-free DMEM was added per well.
On day 4, the cells were washed with 1.5 ml PBS and then 0.9 ml of assay medium was added containing inositol-free/serum free media, 10 μM pargyline, 10 mM lithium chloride, for 5 min in 37° C./5% CO2 followed by 100 μl addition of candidate compound diluted in the same material. The cells were then incubated for 120 minutes at 37° C. […]
In the case of CSc1ccc(NC(=O)Nc2cccc(-c3nn(C)cc3Br)c2)cc1 [Compound 116079, N-[3-(4-bromo-1-methylpyrazol-3-yl)phenyl][(4-methylthiophenyl)amino]carboxamide], the “IP3 % of Control” value was 16%. In the case of Cn1cc(Br)c(-c2cccc(NC(=O)Nc3ccccc3OC(F)(F)F)c2)n1 [Compound 116087, {[3-(4-bromo-1-methylpyrazol-3-yl)phenyl]amino}-N-[2-(trifluoromethoxy)phenyl]carboxamide], the “IP3 % of Control” value was 11%. With Cn1cc(Br)c(-c2cccc(NC(=O)Nc3ccccc3[N+](=O)[O-])c2)n1 [Compound 116089, {[3-(4-bromo-1-methylpyrazol-3-yl)phenyl]amino}-N-(2-nitrophenyl)carboxamide] the “IP3 % of Control” value was 27%. With COc1ccc(NC(=O)Nc2cccc(-c3nn(C)cc3Br)c2)cc1 [Compound 116091, {[3-(4-bromo-1-methylpyrazol-3-yl)phenyl]amino}-N-(4-methoxyphenyl)carboxamide] the “IP3 % of Control” value was 12%. In the case of Cc1ccccc1NC(=O)Nc1cccc(-c2nn(C)cc2Br)c1 [Compound 116092, {[3-(4-bromo-1-methylpyrazol-3-yl)phenyl]amino}-N-(2-methylphenyl)carboxamide], the “IP3 % of Control” value was 32%. For Cn1cc(Br)c(-c2cccc(NC(=O)Nc3ccc(C(F)(F)F)cc3)c2)n1 [Compound 116097, {[3-(4-bromo-1-methylpyrazol-3-yl)phenyl]amino}-N-[4-(trifluoromethyl)phenyl]carboxamide], the “IP3 % of Control” value was 11%. In the case of Cn1cc(Br)c(-c2cccc(NC(=O)Nc3cccc(Cl)c3)c2)n1 [Compound 116105, {[3-(4-bromo-1-methylpyrazol-3-yl)phenyl]amino}-N-(3-chlorophenyl)carboxamide], the “IP3 % of Control” value was 11%. With Cn1cc(Br)c(-c2cccc(NC(=O)Nc3ccccc3Cl)c2)n1 [Compound 116108, {[3-(4-bromo-1-methylpyrazol-3-yl)phenyl]amino}-N-(2-chlorophenyl)carboxamide] the “IP3 % of Control” value was 6%. With CC(C)c1ccc(NC(=O)Nc2cccc(-c3nn(C)cc3Br)c2)cc1 [Compound 116110, {[3-(4-bromo-1-methylpyrazol-3-yl)phenyl]amino}-N-[4-(methylethyl)phenyl]carboxamide] the “IP3 % of Control” value was 7%. With COc1cccc(NC(=O)Nc2cccc(-c3nn(C)cc3Br)c2)c1 [Compound 116111, {[3-(4-bromo-1-methylpyrazol-3-yl)phenyl]amino}-N-(3-methoxyphenyl)carboxamide] the “IP3 % of Control” value was 7%. For Cc1cccc(NC(=O)Nc2cccc(-c3nn(C)cc3Br)c2)c1 [Compound 116112, {[3-(4-bromo-1-methylpyrazol-3-yl)phenyl]amino}-N-(3-methylphenyl)carboxamide], the “IP3 % of Control” value was 14%. In the case of Cn1cc(Br)c(-c2cccc(NC(=O)Nc3ccc(C(C)(C)C)cc3)c2)n1 [Compound 116119, N-[4-(tert-butyl)phenyl]{[3-(4-bromo-1-methylpyrazol-3-yl)phenyl]amino}carboxamide], the “IP3 % of Control” value was 17%. With CN(C)c1ccc(NC(=O)Nc2cccc(-c3nn(C)cc3Br)c2)cc1 [Compound 116122, N-[4-(dimethylamino)phenyl]{[3-(4-bromo-1-methylpyrazol-3-yl)phenyl]amino}carboxamide] the “IP3 % of Control” value was 9%. With Cc1c(Cl)cc(NC(=O)Nc2cccc(-c3nn(C)cc3Br)c2)cc1Cl [Compound 116138, N-(3,5-dichloro-4-methylphenyl){[3-(4-bromo-1-methylpyrazol-3-yl)phenyl]amino}carboxamide] the “IP3 % of Control” value was 23%. With Cn1cc(Br)c(-c2cccc(NC(=O)Nc3ccc(SC(F)(F)F)cc3)c2)n1 [Compound 116139, {[3-(4-bromo-1-methylpyrazol-3-yl)phenyl]amino}-N-[4-(trifluoromethylthio)phenyl]carboxamide] the “IP3 % of Control” value was 12%. With Cn1cc(Br)c(-c2cccc(NC(=O)Nc3ccccc3F)c2)n1 [Compound 116144, {[3-(4-bromo-1-methylpyrazol-3-yl)phenyl]amino}-N-(2-fluorophenyl)carboxamide] the “IP3 % of Control” value was 12%. With Cn1cc(Br)c(-c2cccc(NC(=O)Nc3ccccc3C(N)=O)c2)n1 [Compound 116145, 2-({[3-(4-bromo-1-methylpyrazol-3-yl)phenyl]amino}carbonylamino)benzamide] the “IP3 % of Control” value was 31%. For Cn1cc(Br)c(-c2cccc(NC(=O)Nc3ccc(C#N)cc3)c2)n1 [Compound 116147, {[3-(4-bromo-1-methylpyrazol-3-yl)phenyl]amino}-N-(4-cyanophenyl)carboxamide], the “IP3 % of Control” value was 12%. For Cn1cc(Br)c(-c2cccc(NC(=O)Nc3ccccc3C#N)c2)n1 [Compound 116148, {[3-(4-bromo-1-methylpyrazol-3-yl)phenyl]amino}-N-(2-cyanophenyl)carboxamide], the “IP3 % of Control” value was 30%.

Same assay, conditions: AP-3; Example 10
Cn1cc(Br)c(-c2cccc(NC(=O)Nc3ccc(OC(F)(F)F)cc3)c2)n1 [Compound 103487, N-[3-(4-bromo-1-methylpyrazol-3-yl)phenyl][{(4-trifluoromethoxy)phenyl}amino]carboxamide] gave a pIC50 of 7.05.
